# Source: PMC8913810, “New insights into the resistance mechanism for the BceAB-type transporter SaNsrFP” (Scientific Reports, 2022)
# Like-named read-outs stand apart in the source and are kept apart here. Bridge positions count the residues as written; N and C are the ends. Square brackets hold non-standard residues; d marks the D form. Peptide text beside a SMILES is read from it. * marks the point of attachment. Ileψ(thiazoline)Cys = CC[C@H](C)[C@H](N)C1=N[C@H](C(=O)*)CS1; dOrn = NCCC[C@@H](N)C(=O)O
# Key:
# L. lactis NZ9000NisT [1] = details: for Fold of resistance L. lactis NZ9000NisT: IC50 of NZ9000NisT relative to NZ9000Cm; for IC50: read-out: IC50 (nM) L. lactis NZ9000NisT, GM17, 5 µg/ml chloramphenicol, 0.3 nM nisin, 30 °C, 5 h, optical density
# L. lactis NZ9000Cm [2] = details: read-out: IC50 (nM) L. lactis NZ9000Cm; GM17, 5 µg/ml chloramphenicol, 0.3 nM nisin, 30 °C, 5 h, optical density; at least 3 biological replicates with 3 technical replicates each
# Procedure: (§1) After adding the different antibiotics to the cultures of the strains L. lactis wild type (WT), L. lactis NZ9000Cm, L. lactis NZ9000SaNsrFP and L. lactis SaNsrFH202AP, the IC50 was determined.
# (§2) The half maximal inhibitory concentration was determined according to Abts et al.[71]. Briefly, L. lactis NZ9000Cm, L. lactis NZ9000SaNsrFP and L. lactis NZ9000SaNsrFH202AP cells were grown in GM17 medium containing 5 µg/ml chloramphenicol and 0.3 nM nisin at 30 °C overnight. Fresh GM17Cm medium with a sublethal amount of nisin (0.3 nM) was inoculated with overnight cultures to an OD600 of 0.1. A 96-well plate was prepared with a serial dilution of examined antibiotics (concentration ranges ramoplanin 0.014 nM–3.75 µM; lysobactin 0.002 nM–10 µM; vancomycin 0.02 nM–80 µM; nisin 0.0001 nM–0.5 µM) and subsequently the cell culture was added and plates were incubated at 30 °C for 5 h. Afterwards, the optical density was measured, and the IC50 values for each strain and antibiotic were calculated.
# [3] = system: L. lactis NZ9000NsrFH202AP; details: for Fold of resistance L. lactis NZ9000NsrFH202AP: IC50 of NZ9000NsrFH202AP divided by IC50 of NZ9000Cm; for IC50: read-out: IC50 (nM) L. lactis NZ9000NsrFH202AP, GM17, 5 µg/ml chloramphenicol, 0.3 nM nisin, 30 °C, 5 h, optical density, at least 3 biological replicates with 3 technical replicates each
# Procedure: as §1, §2
# L. lactis NZ9000NsrFP [4] = details: for Fold of resistance L. lactis NZ9000NsrFP: IC50 of NZ9000NsrFP divided by IC50 of NZ9000Cm; for IC50: read-out: IC50 (nM) L. lactis NZ9000NsrFP, GM17, 5 µg/ml chloramphenicol, 0.3 nM nisin, 30 °C, 5 h, optical density, at least 3 biological replicates with 3 technical replicates each
# Procedure: as §1, §2
# L. lactis NZ9000NisT [5] = experiment: Growth curve, NisT-producing strain; format: cell-based, Lactococcus lactis; details: 1 µM bacitracin + 1 mM ZnCl2 or 4 µM bacitracin without zinc; 0.3 nM nisin; monitored over 500 min, 30 °C
# Description: (§3) To investigate whether SaNsrFP confers resistance against bacitracin and Zn-bacitracin, binding to the lipid carrier UPP[20],[52], we analyzed the influence of the expression of the sansrfp gene. The sensitive L. lactis strain NZ9000, served as an indicator strain for these studies which was transformed with a plasmid encoding the nsrfp gene. We included two controls where the strains were transformed with (I) an empty plasmid (L. lactis NZ9000Cm) (II) a plasmid containing a variant of the nsrfp gene (L. lactis NZ9000SaNsrFH202AP)[34]. This NZ9000SaNsrFH202AP strain is used since the transporter carries a mutation in the H-loop, a highly conserved region of ABC transporters, and as a result is not able to hydrolyze ATP[47]. […] The growth of L. lactis NZ9000Cm, L. lactis NZ9000SaNsrFP, L. lactis NZ9000SaNsrFH202AP and L. lactis NZ9000NisT was monitored online over a time period of 500 min (Fig. 2a,b). After adding the different antibiotics to the culture, the growth curve was determined. […]
# (§4) To detect the growth behavior of the different strains, precultures of L. lactis NZ9000Cm, L. lactis NZ9000SaNsrFP and L. lactis NZ9000SaNsrFH202AP cells were grown in GM17 medium with 5 or 10 µg/ml chloramphenicol and 0.3 nM nisin at 30 °C overnight. […] Growth was detected at OD584 every 10 min with a FLUOstar OPTIMA (BMG Lab technology).
# L. lactis NZ9000Cm [6] = experiment: Cytoplasmic PGN precursor accumulation (HPLC/MS), empty-plasmid strain; format: cell-based, Lactococcus lactis; details: bacitracin 100 µg/ml added at OD600 1.2, 30 min at 30 °C, repeated once; HPLC/MS EIC 1148.4 and 1263.4
# Procedure: (§5) Cells were grown in M17 medium supplemented with 0.5% glucose and 0.3 nM nisin overnight at 30 °C without shaking. The next day, 100 ml with 0.5% glucose and 0.3 nM nisin was inoculated with overnight cultures to OD600 = 0.1. When OD600 = 1.2 bacitracin (100 µg/ml) was added to the cultures to enrich cell wall precursors, and the cultures were incubated for an additional 30 min at 30 °C. This step was repeated once. (As a control, a second culture each was harvested before bacitracin was added at an OD600 = 1.2, and cell pellets were stored at − 20 °C) After incubation with bacitracin, the cells were harvested, and the cell pellets were stored at − 20 °C. The next day, the cell pellets were resuspended in 25 ml water and cooked for 60 min in boiling water to break the cells. Cell debris was removed by centrifugation (15 min, 500×g, 4 °C). […]
# (§6) Five microliters of each sample were injected into an XCT6330 LC/MSD ultratrap system (Agilent Technologies) equipped with a Nucleosil 100 C18 column (3 μm × 100 mm × 2 mm internal diameter, Dr. Maisch GmbH). […] Extracted ion chromatograms (EICs) in negative ion mode for UDP-MurNAc-L-Ala-D-iGlu-L-Lys-D-Ala-D-Ala (m/z^−1 1148.34 ± 0.1) and UDP-MurNAc-L-Ala-D-iGlu-L-Lys-(D-Asp)-D-Ala-D-Ala (m/z^−1 1263.37 ± 0.1) were analyzed with Data Analysis (Bruker), exported and presented with GraphPad Prism 6.0.
# L. lactis NZ9000SaNsrFP [7] = experiment: Growth curve, SaNsrFP-producing strain; format: cell-based, Lactococcus lactis; details: 1 µM bacitracin + 1 mM ZnCl2 or 4 µM bacitracin without zinc; 0.3 nM nisin; compared with untreated control strain
# Description: as §3, §4
# L. lactis NZ9000Cm [8] = experiment: Growth curve, empty-plasmid strain; format: cell-based, Lactococcus lactis; details: 1 µM bacitracin + 1 mM ZnCl2 or 4 µM bacitracin without zinc; 0.3 nM nisin; monitored over 500 min, 30 °C
# Description: as §3, §4
# [9] = system: L. lactis NZ9000SaNsrFH202AP; experiment: Growth curve, ATP-hydrolysis deficient mutant strain; format: cell-based, Lactococcus lactis; details: 4 µM bacitracin without ZnCl2; 0.3 nM nisin; monitored over 500 min
# Description: as §3, §4
# [10] = system: L. lactis NZ9000SaNsrFH202AP; experiment: Cytoplasmic PGN precursor accumulation (HPLC/MS), ATP-hydrolysis deficient mutant strain; format: cell-based, Lactococcus lactis; details: bacitracin 100 µg/ml added at OD600 1.2, 30 min at 30 °C, repeated once; compared with NZ9000Cm
# Procedure: as §5, §6
# L. lactis NZ9000SaNsrFP [11] = experiment: Cytoplasmic PGN precursor accumulation (HPLC/MS), SaNsrFP-producing strain; format: cell-based, Lactococcus lactis; details: bacitracin 100 µg/ml added at OD600 1.2, 30 min at 30 °C, repeated once; HPLC/MS EIC 1148.4 and 1263.4
# Procedure: as §5, §6
# L. lactis NZ9000NsrFP [12] = details: fold changes described earlier for SaNsrFP; ref 34 (Reiners et al.); cited from earlier work
# Description: No significant differences were detected between NZ9000NsrFP and NZ9000NsrFH202AP with ramoplanin. […] IC50 values decreased to similar levels in L. lactis NZ9000SaNsrFH202AP (one, two ...
# SaNSRS236A = system: SaNSRS236A; set-up: method as in earlier work; details: low-level resistance; ref 32 (Khosa et al.); cited from earlier work
Compound,Fold of resistance L. lactis NZ9000NisT (L. lactis NZ9000NisT [1]),IC50 (L. lactis NZ9000NisT [1]),IC50 (L. lactis NZ9000Cm [2]),Fold of resistance L. lactis NZ9000NsrFH202AP [3],IC50 [3],Fold of resistance L. lactis NZ9000NsrFP (L. lactis NZ9000NsrFP [4]),IC50 (L. lactis NZ9000NsrFP [4]),Growth behaviour of L. lactis NZ9000NisT (L. lactis NZ9000NisT [5]),"PGN precursor accumulation in the cytoplasm, L. lactis NZ9000Cm (L. lactis NZ9000Cm [6])",Growth behaviour of L. lactis NZ9000SaNsrFP (L. lactis NZ9000SaNsrFP [7]),Fold of resistance L. lactis NZ9000NsrFP (L. lactis NZ9000NsrFP [4]; listed as bacitracin),Growth behaviour of L. lactis NZ9000Cm (L. lactis NZ9000Cm [8]),Growth behaviour of L. lactis NZ9000SaNsrFH202AP [9],"PGN precursor accumulation in the cytoplasm, L. lactis NZ9000SaNsrFH202AP [10]","PGN precursor accumulation in the cytoplasm, L. lactis NZ9000SaNsrFP (L. lactis NZ9000SaNsrFP [11])",Fold of resistance conferred by SaNsrFP (L. lactis NZ9000NsrFP [12]),"Resistance against nisin, inactive protease variant SaNSRS236A (SaNSRS236A)"
ramoplanin A2,1.3 ± 0 fold,95 nM,73 ± 18 nM,1 ± 0 fold,92 ± 21 nM,2 ± 1 fold,121 ± 34 nM,–,–,–,–,–,–,–,–,–,–
"CC[C@H](C)[C@H](N)C1=N[C@H](C(=O)N[C@@H](CC(C)C)C(=O)N[C@H](CCC(=O)O)C(=O)N[C@H](C(=O)N[C@H]2CCCCNC(=O)[C@H](CC(N)=O)NC(=O)[C@@H](CC(=O)O)NC(=O)[C@H](Cc3cnc[nH]3)NC(=O)[C@@H](Cc3ccccc3)NC(=O)[C@H]([C@@H](C)CC)NC(=O)[C@@H](CCCN)NC2=O)[C@@H](C)CC)CS1 [Bacitracin, bacitracin] ({Ileψ(thiazoline)Cys}-L[dE]IK[dOrn]I[dF]H[dD]N; lactam 4-C (inferred); N-terminus assumed)",1 ± 0 fold,733 nM,938 ± 94 nM,13 fold,12900 nM,349 ± 65 fold,328000 nM,Severe growth inhibition,presence of the characteristic PGN precursors,did not show reduced growth,350 fold,Severe growth inhibition,reduced growth,reduced PGN precursor accumulation,no accumulation of the PGN precursors,–,–
lysobactin,1 ± 0 fold,25 ± 3 nM,30.7 nM,3 ± 2 fold,102 ± 52.2 nM,6 ± 1 fold,182 ± 37 nM,–,–,–,–,–,–,–,–,–,–
"CN[C@H](CC(C)C)C(=O)N[C@H]1C(=O)N[C@@H](CC(N)=O)C(=O)N[C@H]2C(=O)N[C@H]3C(=O)N[C@H](C(=O)N[C@H](C(=O)O)c4cc(O)cc(O)c4-c4cc3ccc4O)[C@H](O)c3ccc(c(Cl)c3)Oc3cc2cc(c3O[C@@H]2O[C@H](CO)[C@@H](O)[C@H](O)[C@H]2O[C@H]2C[C@](C)(N)[C@H](O)[C@H](C)O2)Oc2ccc(cc2Cl)[C@H]1O [Vancomycin, vancomycin]",1 ± 0 fold,133 ± 9 nM,214 nM,2 ± 1 fold,325 ± 117 nM,5 ± 1 fold,1080 ± 264 nM,–,–,–,–,–,–,–,–,–,–
gallidermin,–,–,–,–,–,–,–,–,–,–,–,–,–,–,–,12 fold,–
nisin,–,–,–,–,–,–,–,–,–,–,–,–,–,–,–,16 fold,2.6 fold
